Earlier results on 19 compounds are cited in US12226503B2, “Prebiotic skin care compositions containing carboxylic acids” (priority 2019, dated 2025).

For the series the following is noted: toxic or irritant for humans or on skin.
Turning to `O=C(O)CC(O)C(=O)O` (racemic) [D,L-Malic acid], the Toxicity result is “+”.

Turning to `CCC(N)C(=O)O` (racemic) [D,L-α-amino-N-butyric acid], the Toxicity result is given as “+”. `CCCCCCC(N)C(=O)O` (racemic) [D,L-α-amino-caprylic acid]: the Toxicity entry is listed as “+”.

For `O=C(O)c1ccc(O)cc1` [4-hydroxybenzoic acid], the Toxicity result was “+”. With `O=C(O)[C@@H](O)[C@@H](O)[C@H](O)[C@@H](O)C(=O)O` [D-saccharic acid], the Toxicity result is on record as “+”. In the case of `COc1cc(/C=C/C(=O)O)ccc1O` [Ferulic acid], the Toxicity entry was “+”. Take `O=C(O)/C=C/C(=O)O` [Fumaric acid]: the Toxicity entry was “+”. Regarding `O=C(O)c1cc(O)c(O)c(O)c1` [Gallic acid], the Toxicity entry was “+”. In the case of `O=CC(=O)O` [Glyoxylic acid], the Toxicity entry is listed as “+”. With `O=C(O)CNC(=O)c1ccccc1` [Hippuric acid], the Toxicity entry is listed as “+”. In the case of `C[C@H](O)C(=O)O` [L-lactic acid], the Toxicity entry is listed as “+”. For the compound `O=C(O)[C@@H](O)[C@H](O)[C@H](O)[C@@H](O)C(=O)O` [Mucic acid], the Toxicity entry is “+”. For the compound `CC(=O)N[C@H]1[C@H]([C@H](O)[C@H](O)CO)O[C@](O)(C(=O)O)C[C@@H]1O` [N-acetyl-neuraminic acid], the Toxicity entry is given as “+”. With `CCCCCCCCCCCCCCCCCC(=O)O` [Stearic acid], the Toxicity result is “+”. Take `O=C(O)C(CO)c1ccccc1` (stereo not shown) [Tropic acid]: the Toxicity entry is listed as “+”.

`CC(O)CC(=O)O` (stereo not drawn) [β-hydroxybutyric acid]: the Toxicity result is on record as “+”. Regarding `NCCCC(=O)O` [γ-Aminobutyric acid], the Toxicity entry is recorded as “+”.

Turning to `NCCCCCC(=O)O` [ε-Amino-N-caproic acid], the Toxicity result is recorded as “+”.

Regarding Citric acid, the Toxicity entry is given as “+”.
